Assay results: patent EP4650353A1 (Shanghai Institute of Materia Medica, Chinese Academy of …, priority 2023, dated 2024)
pEC50: −log10 of the molar value.

molecular target: T1, human GLP-1 receptor (Homo sapiens, UniProt P43220); test: GLP-1 receptor-mediated agonist activity: cAMP level in hGLP-1R/HEK293 cell line (HTRF); format: cell-based; conditions: cAMP levels in hGLP-1R/HEK293 cell line; Table 1; read-out: determined EC50
T1 construct: HA (N); expressed in transfected cells
T1 sequence (P43220 24-463): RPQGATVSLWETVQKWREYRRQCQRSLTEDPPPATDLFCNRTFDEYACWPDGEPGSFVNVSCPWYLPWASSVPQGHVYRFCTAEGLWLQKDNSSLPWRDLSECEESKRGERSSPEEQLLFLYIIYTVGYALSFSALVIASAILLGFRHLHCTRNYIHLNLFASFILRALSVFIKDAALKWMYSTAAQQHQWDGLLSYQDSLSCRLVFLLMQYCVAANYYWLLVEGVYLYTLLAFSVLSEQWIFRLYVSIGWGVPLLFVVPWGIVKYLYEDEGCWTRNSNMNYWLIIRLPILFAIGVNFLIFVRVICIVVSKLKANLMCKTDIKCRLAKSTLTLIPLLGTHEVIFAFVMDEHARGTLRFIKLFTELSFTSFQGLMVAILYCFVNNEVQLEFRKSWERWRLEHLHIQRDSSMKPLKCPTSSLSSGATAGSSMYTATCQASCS
Experimental: The hGLP-1R/HEK293 cells were digested, centrifuged and resuspended in culture medium (DMEM+0.2% BSA, m/v), and the cell density was adjusted to 2×10^5 cells/mL. IBMX (3-isobutyl-1-methylxanthine, final concentration of 0.5 mM) was added to the cell suspension and added to a 384-well plate at 5 µL (1×10^3 cells)/well. The compound was dissolved in DMSO to prepare a stock solution with a concentration of 10 mM. The experiment started with a concentration of 100 µM which was diluted 10 times in a series of 7 dilution points, with the 8th point being DMSO. 2 µL of the test compound of different concentrations was added to 98 µL of culture medium, shaken and mixed, 5 µL was taken and added to a 384-well plate (final concentration of the test compound was 0-100 nM, final concentration of DMSO was 1%, v/v), which was then incubated in the incubator (37°C, 5% CO2) in the dark for 30 min, then 10 µL of cAMP detection reagent (LANCE Ultra cAMP Detecion Kit, PerkinElmer, #TRF0264) was added, mixed well, and reacted at room temperature in the dark for 1 h. After the reaction was completed, the HTRF signal was read using the Envision 2104 multi-function microplate reader. All samples were tested in triplicate wells, and the ratio of the acceptor-donor excitation signal in each single well was calculated using the formula Ratio = Signal 665nM/Signal 620nM. The HTRF signal ratio and the corresponding compound concentration were analyzed and processed using GraphPad Prism 8 software, and the EC50 value of the compound was obtained by fitting the S-type dose-response curve and calculating.

Q: How did the pEC50 turn out when `COc1cc(C#N)ccc1COc1ncccc1C1CCN(Cc2nc3c(OC)cc(C(=O)O)cc3n2C[C@@H]2CCO2)CC1` [Compound 34, (S)-2-((4-(2-((4-cyano-2-methoxybenzyl)oxy)pyridin-3-yl)piperidin-1-yl)methyl)-4-methoxy-1-(oxetan-2-ylmethyl)-1H-benzo[d]imidazole-6-carboxylic acid] was run?
A: 11.48

Q: How did the pEC50 turn out when `COc1cc(C(=O)O)cc2c1nc(CN1CCC(c3cccnc3OCc3ccc(C#N)c4c3OCC4)CC1)n2C[C@@H]1CCO1` [Compound 35, (S)-2-((4-(2-((4-cyano-2,3-dihydrobenzofuran-7-yl)methoxy)pyridin-3-yl)piperidin-1-yl)methyl)-4-methoxy-1-(oxetan-2-ylmethyl)-1H-benzo[d]imidazole-6-carboxylic acid] was run?
A: 11.09

Q: How did the pEC50 turn out when `COc1cc(C(=O)O)cc2c1nc(CN1CCC(c3cccc4c3OC(C)(c3ccc(Cl)cc3F)O4)CC1)n2C[C@@H]1CCO1` (stereo partly drawn) [Compound 36, 2-((4-(2-(4-chloro-2-fluorophenyl)-2-methylbenzo[d][1,3]dioxol-4-yl)piperidin-1-yl)methyl)-4-methoxy-1-(((S)-oxetan-2-yl)methyl)-1H-benzo[d]imidazole-6-carboxylic acid] was run?
A: 11.08

Q: How did the pEC50 turn out when `CCOc1cc(C(=O)O)cc2c1nc(CN1CCC(c3cccc4c3OC(C)(c3ccc(Cl)cc3F)O4)CC1)n2C[C@@H]1CCO1` (stereo partly drawn) [Compound 37, 2-((4-(2-(4-chloro-2-fluorophenyl)-2-methylbenzo[d][1,3]dioxol-4-yl)piperidin-1-yl)methyl)-4-ethoxy-1-(((S)-oxetan-2-yl)methyl)-1H-benzo[d]imidazole-6-carboxylic acid] was run?
A: 11.17

Q: With `COc1cc(C(=O)O)cc2c1nc(CN1CCC(c3cccc4c3OC(C)(c3ccc(Cl)cn3)O4)CC1)n2C[C@@H]1CCO1` (stereo partly drawn) [Compound 38, 2-((4-(2-(5-chloropyridin-2-yl)-2-methylbenzo[d][1,3]dioxol-4-yl)piperidin-1-yl)methyl)-4-methoxy-1-(((S)-oxetan-2-yl)methyl)-1H-benzo[d]imidazole-6-carboxylic acid] as the molecule, how does the pEC50 read?
A: 10.64

Q: With `CCOc1cc(C(=O)O)cc2c1nc(CN1CCC(c3cccc4c3OC(C)(c3ccc(Cl)cn3)O4)CC1)n2C[C@@H]1CCO1` (stereo partly drawn) [Compound 39, 2-((4-(2-(5-chloropyridin-2-yl)-2-methylbenzo[d][1,3]dioxol-4-yl)piperidin-1-yl)methyl)-4-ethoxy-1-(((S)-oxetan-2-yl)methyl)-1H-benzo[d]imidazole-6-carboxylic acid] as the molecule, how does the pEC50 read?
A: 11.10

Q: With `COc1cc(C(=O)O)cc2c1nc(CN1CCN(c3cccc4c3OC(C)(c3ccc(Cl)cc3F)O4)CC1)n2C[C@@H]1CCO1` (stereo partly drawn) [Compound 40, 2-((4-(2-(4-chloro-2-fluorophenyl)-2-methylbenzo[d][1,3]dioxol-4-yl)piperazin-1-yl)methyl)-4-methoxy-1-(((S)-oxetan-2-yl)methyl)-1H-benzo[d]imidazole-6-carboxylic acid] as the molecule, how does the pEC50 read?
A: 10.95

Q: How did the pEC50 turn out when `COc1cc(C#N)ccc1COc1cccc(C2CCN(Cc3nc4c(OC)cc(C(=O)O)cc4n3C[C@@H]3CCO3)CC2)c1` [Compound 42, (S)-2-((4-(3-((4-cyano-2-methoxybenzyl)oxy)phenyl)piperidin-1-yl)methyl)-4-methoxy-1-(oxetan-2-ylmethyl)-1H-benzo[d]imidazole-6-carboxylic acid] was run?
A: 10.53

Q: `COc1cc(C(=O)O)cc2c1nc(CN1CCC(c3cccc(OCc4ccc(C#N)c5c4OCC5)c3)CC1)n2C[C@@H]1CCO1` [Compound 43, (S)-2-((4-(3-((4-cyano-2,3-dihydrobenzofuran-7-yl)methoxy)phenyl)piperidin-1-yl)methyl)-4-methoxy-1-(oxetan-2-ylmethyl)-1H-benzo[d]imidazole-6-carboxylic acid] was tested. Which pEC50 did it give?
A: 10.47

Q: How did the pEC50 turn out when `COc1cc(C#N)ccc1COc1ccccc1C1CCN(Cc2nc3c(OC)cc(C(=O)O)cc3n2C[C@@H]2CCO2)CC1` [Compound 44, (S)-2-((4-(2-((4-cyano-2-methoxybenzyl)oxy)phenyl)piperidin-1-yl)methyl)-4-methoxy-1-(oxetan-2-ylmethyl)-1H-benzo[d]imidazole-6-carboxylic acid] was run?
A: 11.02

Q: With `COc1cc(C(=O)O)cc2c1nc(CN1CCC(c3ccccc3OCc3ccc(Cl)c4c3OCC4)CC1)n2C[C@@H]1CCO1` [Compound 45, (S)-2-((4-(2-((4-chloro-2,3-dihydrobenzofuran-7-yl)methoxy)phenyl)piperidin-1-yl)methyl)-4-methoxy-1-(oxetan-2-ylmethyl)-1H-benzo[d]imidazole-6-carboxylic acid] as the molecule, how does the pEC50 read?
A: 10.29

Q: With `COc1cc(C(=O)O)cc2c1nc(CN1CCC(c3ccccc3OCc3ccc(C#N)c4c3OCC4)CC1)n2C[C@@H]1CCO1` [Compound 46, (S)-2-((4-(2-((4-cyano-2,3-dihydrobenzofuran-7-yl)methoxy)phenyl)piperidin-1-yl)methyl)-4-methoxy-1-(oxetan-2-ylmethyl)-1H-benzo[d]imidazole-6-carboxylic acid] as the molecule, how does the pEC50 read?
A: 10.37

Q: With `COc1cc(C(=O)O)cc2c1nc(CN1CCC(c3ccccc3OCc3ccc(C#N)cc3F)CC1)n2C[C@@H]1CCO1` [Compound 47, (S)-2-((4-(2-((4-cyano-2-fluorobenzyl)oxy)phenyl)piperidin-1-yl)methyl)-4-methoxy-1-(oxetan-2-ylmethyl)-1H-benzo[d]imidazole-6-carboxylic acid] as the molecule, how does the pEC50 read?
A: 10.21

Q: `COc1cc(C(=O)O)cc2c1nc(CN1CCC(c3ccccc3OCc3ccc(Cl)cc3F)CC1)n2C[C@@H]1CCO1` [Compound 48, (S)-2-((4-(2-((4-chloro-2-fluorobenzyl)oxy)phenyl)piperidin-1-yl)methyl)-4-methoxy-1-(oxetan-2-ylmethyl)-1H-benzo[d]imidazole-6-carboxylic acid] was tested. Which pEC50 did it give?
A: 10.36

Q: With `COc1cc(C(F)(F)F)ccc1COc1cccc(C2CCN(Cc3nc4c(OC)cc(C(=O)O)cc4n3C[C@@H]3CCO3)CC2)n1` [Compound 51, (S)-4-methoxy-2-((4-(6-((2-methoxy-4-(trifluoromethyl)benzyl)oxy)pyridin-2-yl)piperidin-1-yl)methyl)-1-(oxetan-2-ylmethyl)-1H-benzo[d]imidazole-6-carboxylic acid] as the molecule, how does the pEC50 read?
A: 11.80

Q: `CCOc1cc(C(=O)O)cc2c1nc(CN1CCC(c3cccc(OCc4ccc(C(F)(F)F)cc4OC)n3)CC1)n2C[C@@H]1CCO1` [Compound 52, (S)-4-ethoxy-2-((4-(6-((2-methoxy-4-(trifluoromethyl)benzyl)oxy)pyridin-2-yl)piperidin-1-yl)methyl)-1-(oxetan-2-ylmethyl)-1H-benzo[d]imidazole-6-carboxylic acid] was tested. Which pEC50 did it give?
A: 11.92

Q: With `COc1cc(C(=O)O)cc2c1nc(CN1CCC(c3cccc4c3OC(C)(c3ccc(C(F)(F)F)cc3F)O4)CC1)n2C[C@@H]1CCO1` (stereo partly drawn) [Compound 53, 2-((4-(2-(2-fluoro-4-(trifluoromethyl)phenyl)-2-methylbenzo[d][1,3]dioxol-4-yl)piperidin-1-yl)methyl)-4-methoxy-1-(((S)-oxetan-2-yl)methyl)-1H-benzo[d]imidazole-6-carboxylic acid] as the molecule, how does the pEC50 read?
A: 11.03

Q: `CCOc1cc(C(=O)O)cc2c1nc(CN1CCC(c3cccc4c3OC(C)(c3ccc(C(F)(F)F)cc3F)O4)CC1)n2C[C@@H]1CCO1` (stereo partly drawn) [Compound 54, 4-ethoxy-2-((4-(2-(2-fluoro-4-(trifluoromethyl)phenyl)-2-methylbenzo[d][1,3]dioxol-4-yl)piperidin-1-yl)methyl)-1-(((S)-oxetan-2-yl)methyl)-1H-benzo[d]imidazole-6-carboxylic acid] was tested. Which pEC50 did it give?
A: 11.11

Q: How did the pEC50 turn out when `COc1cc(C(=O)O)cc2c1nc(CN1CCC(c3cccc4c3OC(C)(c3ccc(C(F)(F)F)cn3)O4)CC1)n2C[C@@H]1CCO1` (stereo partly drawn) [Compound 55, 4-methoxy-2-((4-(2-methyl-2-(5-(trifluoromethyl)pyridin-2-yl)benzo[d][1,3]dioxol-4-yl)piperidin-1-yl)methyl)-1-(((S)-oxetan-2-yl)methyl)-1H-benzo[d]imidazole-6-carboxylic acid] was run?
A: 10.60

Q: With `CCOc1cc(C(=O)O)cc2c1nc(CN1CCC(c3cccc4c3OC(C)(c3ccc(C(F)(F)F)cn3)O4)CC1)n2C[C@@H]1CCO1` (stereo partly drawn) [Compound 56, 4-ethoxy-2-((4-(2-methyl-2-(5-(trifluoromethyl)pyridin-2-yl)benzo[d][1,3]dioxol-4-yl)piperidin-1-yl)methyl)-1-(((S)-oxetan-2-yl)methyl)-1H-benzo[d]imidazole-6-carboxylic acid] as the molecule, how does the pEC50 read?
A: 11.01

Q: With `COc1cc(Cl)ccc1C1(C)Oc2cccc(C3CCN(Cc4nc5c(OC)cc(C(=O)O)cc5n4C[C@@H]4CCO4)CC3)c2O1` (stereo partly drawn) [Compound 57, 2-((4-(2-(4-chloro-2-methoxyphenyl)-2-methylbenzo[d][1,3]dioxol-4-yl)piperidin-1-yl)methyl)-4-methoxy-1-(((S)-oxetan-2-yl)methyl)-1H-benzo[d]imidazole-6-carboxylic acid] as the molecule, how does the pEC50 read?
A: 11.55

Q: With `CCOc1cc(C(=O)O)cc2c1nc(CN1CCC(c3cccc4c3OC(C)(c3ccc(Cl)cc3OC)O4)CC1)n2C[C@@H]1CCO1` (stereo partly drawn) [Compound 58, 2-((4-(2-(4-chloro-2-methoxyphenyl)-2-methylbenzo[d][1,3]dioxol-4-yl)piperidin-1-yl)methyl)-4-ethoxy-1-(((S)-oxetan-2-yl)methyl)-1H-benzo[d]imidazole-6-carboxylic acid] as the molecule, how does the pEC50 read?
A: 11.66

Q: How did the pEC50 turn out when `CCOc1cc(C(=O)O)cc2c1nc(CN1CCC(c3cccc4c3OC(C)(c3ccc(C(F)(F)F)cc3OC)O4)CC1)n2C[C@@H]1CCO1` (stereo partly shown) [Compound 60] was run?
A: 11.59

Q: How did the pEC50 turn out when `CC1(c2ccc(Cl)cn2)Oc2cccc(C3CCN(Cc4nc5c(OC(F)F)cc(C(=O)O)cc5n4C[C@@H]4CCO4)CC3)c2O1` (stereo partly drawn) [Compound 62, 2-((4-(2-(5-chloropyridin-2-yl)-2-methylbenzo[d][1,3]dioxol-4-yl)piperidin-1-yl)methyl)-4-(difluoromethoxy)-1-(((S)-oxetan-2-yl)methyl)-1H-benzo[d]imidazole-6-carboxylic acid] was run?
A: 10.66

Q: With `COc1cc(C(=O)O)cc2c1nc(CN1CCN(c3cccc4c3OC(C)(c3ccc(C(F)(F)F)cn3)O4)C=N1)n2C[C@@H]1CCO1` (stereo partly drawn) [Compound 65, 4-methoxy-2-((4-(2-methyl-2-(5-(trifluoromethyl)pyridin-2-yl)benzo[d][1,3]dioxol-4-yl)-5,6-dihydro-1,2,4-triazin-1(4H)-yl)methyl)-1-(((S)-oxetan-2-yl)methyl)-1H-benzo[d]imidazole-6-carboxylic acid] as the molecule, how does the pEC50 read?
A: 10.31
